From patent publication US8496929B2, “Inotropic effects of antibodies on cardiac contraction” (priority 2002, dated 2013)
“Also recorded” adds a separate entry of the source.

Columns and labels:
(Na++K+)-ATPase = assay: [3H]ouabain binding to cardiac sarcolemmal vesicles; set-up: species or system rat; settings: PB added to Jianye prior to [3H]ouabain
Experimental: (§1) Rat cardiac sarcolemmal (SL) vesicles were isolated from rat heart muscle by sucrose flotation method. The vesicles were tested with saponin and were predominately right-side-out in orientation. (Na^++K^+)-ATPase was purified as described previously (Kyte, J. (1971) Biochemistry, 246:4157-4165). Briefly, the SL vesicles (4.4 mg/ml) were titrated with 0.58 mg/ml of SDS in the presence of 2 mM ATP at 20° C. for 30 min. The SDS titrated fractions were then loaded on the top of a sucrose (W/W) step gradient constructed with 10 ml of 37.3% (bottom step), 20 ml of 28.8%, and 10 ml of 15% in a Ti 60 tube, and centrifuged at 40,000 rpm for 90 min. The fractions that contain (Na^++K^+)-ATPase (between 37.3 and 28.8% on the sucrose gradient) were carefully collected and sedimented at 40,000 rpm for 60 minutes. The purified enzyme was resuspended in a sucrose (250 mM)/histidinium chloride (30 mM) buffer, pH 7.2, quick-frozen in liquid nitrogen and stored at −70° C. […]
Cardiac SL vesicles (3 mg/ml) were incubated with or without various concentrations of Jianye antibody for 30 minutes at room temperature in a medium containing 1 mM MgATP, 100 mM NaCl, and 10 mM Tris/HCl buffer (ph 7.4). […] An aliquot (20 or 50 Ml) was taken from each sample and radioactivity determined using a β-scintillation counter. The percent of [^3H]ouabain binding to the enzyme was then calculated. […]

rat ventricular myocytes = assay: Cell contraction and confocal Ca2+ transients in single ventricular myocytes; type: cell-based; settings: PB (PB95, 20 μM) mixed with Jianye prior to administration
Experimental: Ventricular cardiac myocytes were isolated from adult Sprague-Dawley rats (2-3 months old; weight 225-300 g) using standard enzymatic techniques. Briefly, following anesthesia (sodium pentobarbital, 100 mg/kg), the heart was quickly removed from the chest and aortic perfused at constant pressure (100 cmH2O) at 37° C. for 3 minutes with a Ca^2+-free bicarbonate-based buffer containing 120 mM NaCl, 5.4 mM MgSO4, 1.2 mM NaH2PO4, 5.6 mM glucose, 20mM NaHCO3, and 5 mM taurine, in the presence of O2 (95%)-CO2 (5%). The enzymatic digestion was initiated by adding collagenase (Worthington Type II, 1 mg/ml) to the perfusion solution. Calcium (50 μM) was added to the enzyme solution when the heart became swollen. […]
Myocytes were placed on an inverted microscope (Zeiss model IM-35), superfused with HEPES-buffered solution at a flow rate of 1.8 ml/min, and electrically stimulated at 0.5 Hz at 23° C. Cell length was monitored from the bright field image (650 nm to 750 nm red light illumination) by an optical edge-tracking method using a photodiode array (model 1024 SAQ, Reticon) with a 3 ms time resolution. The contraction amplitude was measured as the percentage of shortening of cell length. […]
We next determined whether the binding of Jianye to the (Na^++K^+)-ATPase affects cardiac contractility. […]

[1] = target: T1, digitalis-sensitive (Na++K+)-ATPase purified from dog kidney (Canis lupus familiaris, UniProt P50997); assay: (Na++K+)-ATPase activity, digitalis-sensitive enzyme; type: biochemical; settings: dog enzyme 16 nM; 24-400 nM
T1 construct: Highly purified dog kidney (Na^++K^+)-ATPase was a gift from Dr. Jack Kyte; tissue gift from Dr. Jack Kyte; host or cells: dog kidney
Experimental: The enzymatic activity was determined as described previously (Kyte J., et al., (1987) Biochemistry, 26:8350-8360) with modifications. Briefly, purified rat or dog (Na^++K^+)-ATPase was incubated with or without Jianye or ouabain in the presence of 100 mM Na^+ for 30 min at room temperature. The reaction was initiated by adding 3 mM MgATP and 20 mM K^+ in a final volume of 0.25 ml at 37° C. for 30 min and terminated by adding 0.75 ml quench solution and 0.025 ml developer. The color was allowed to develop for 30 min at room temperature and the concentration of phosphate was then determined at 700 nm using a spectrophotometer.
To investigate whether the binding of Jianye affects (Na^++K^+)-ATPase activity, we measured (Na^++K^+)-ATPase (100 nM) activity in the presence of 100 mM Na^+, 20 mM K^+, 3 mM MgATP, and various concentrations of Jianye or ouabain. […] To exclude the possibility that the inability of Jianye to inhibit enzymatic activity may be due to the digitalis-resistant nature of rat (Na^++K^+)-ATPase (FIG. 3), we tested the effect of Jianye on the digitalis-sensitive (Na^++K^+)-ATPase (16 nM) purified from dog kidney.

[2] = target: T2, digitalis-resistant rat (Na++K+)-ATPase (Rattus norvegicus, UniProt P06685); assay: (Na++K+)-ATPase activity, digitalis-resistant enzyme; type: biochemical; settings: enzyme 100 nM; 24-400 nM test agent; 100 mM Na+, 20 mM K+, 3 mM MgATP
T2 construct: the SL vesicles (4.4 mg/ml) were titrated with 0.58 mg/ml of SDS in the presence of 2 mM ATP; from tissue; host or cells: rat heart muscle; enzyme purified from SL vesicles by SDS titration and sucrose step gradient
Experimental: as §1, with “minutes.” for “minutes. The purified enzyme was resuspended in a sucrose (250 mM)/histidinium chloride (30 mM) buffer, pH 7.2, quick-frozen in liquid nitrogen and stored at −70° C.”
The enzymatic activity was determined as described previously (Kyte J., et al., (1987) Biochemistry, 26:8350-8360) with modifications. […] The color was allowed to develop for 30 min at room temperature and the concentration of phosphate was then determined at 700 nm using a spectrophotometer.
To investigate whether the binding of Jianye affects (Na^++K^+)-ATPase activity, we measured (Na^++K^+)-ATPase (100 nM) activity in the presence of 100 mM Na^+, 20 mM K^+, 3 mM MgATP, and various concentrations of Jianye or ouabain. […]

KRQPRNPKTDKLVNE [PB]
[3H]ouabain labeling when Jianye is saturated by peptide blocker (effect on Jianye antagonism) ((Na++K+)-ATPase): not affected; also recorded: eliminated this antagonist effect | blocking of Jianye-induced increases in Ca2+ transients and contraction (rat ventricular myocytes): largely abolished; also recorded: completely abolished | blocking of Jianye-induced increases in Ca2+ transients and contraction (rat ventricular myocytes; listed as PB95): largely impeded

C[C@@H]1O[C@@H](O[C@H]2C[C@@H](O)[C@]3(CO)[C@H]4[C@H](O)C[C@]5(C)[C@@H](C6=CC(=O)OC6)CC[C@]5(O)[C@@H]4CC[C@]3(O)C2)[C@H](O)[C@H](O)[C@H]1O [ouabain]
effect on dog (Na++K+)-ATPase enzymatic activity [1]: reduced the enzymatic activity | inhibition of ATP hydrolysis [1]: up to 47% | inhibition of rat (Na++K+)-ATPase activity [2]: did not inactivate
